Marks after values point to notes of the source that are not given here.
What was measured:
Format in all cases: in vivo, Sprague-Dawley rats
[1] = Blood ketone (βHB) levels after intragastric gavage of ketone supplements; details: rats; for duration of elevated blood ketones (starting at 30 min): 5 g/kg for all four weeks
Method: (§1) Adult male Sprague-Dawley rats (n=74), 275-325 grams, were obtained from Harlan, and randomly assigned to the following groups: control (water), R,S-1,3-butanediol (BD), or R,S-1,3-butanediol acetoacetate diester (KE). Rats were treated daily with 5 g/kg intragastric gavage of BD or KE for days 1-28. Animals were weighed once per week to maintain accurate dosage using the Mittler Toledo SB16001 scales. Gavage was given between 10 am-1 pm daily to eliminate variance based on regular eating patterns. Diets were not restricted for this study.
(§2) Once a week, animals were fasted, with water still available for 4 hours prior to intragastric gavage to eliminate blood glucose and ketone variance of regular eating habits. Whole blood samples (10 μl) were acquired from the saphenous vein for analysis of glucose and βHB utilizing the commercially available glucose and ketone monitoring system Precision Xtra™ (Abbott Laboratories, Abbott Park, Ill.) at time 0, 0.5, 1, 4, 8, and 12 hours after test substance administration, or until βHB returned to baseline. On Day 0 (Week 0) and Day 28 (Week 4), whole blood samples (10 μL) were acquired for analysis of total cholesterol, HDL, and triglycerides for a lipid panel utilizing the commercially available home cholesterol analyzer Cardio Chek™ (Polymer Technology Systems, Inc., Indianapolis, Ind.) at time 0.

[2] = Blood glucose levels after intragastric gavage of ketone supplements; details: rats; for blood glucose levels, overall over the 4 weeks: 5 g/kg gavage daily; for blood glucose levels, week 1: FIG. 4(B)
Method: as §1, §2

[3] = Lipid panel (total cholesterol, HDL, triglycerides) at week 0 and week 4; details: rats, after 4-week chronic dosage, 5 g/kg
Method: as §1, §2

[4] = Change of body weight over 4 weeks of ketone supplementation; details: rats, 5 g/kg gavage daily, weekly weighing over 4 weeks
Method: as §1
Animal weights were obtained weekly (Mittler Toledo SB16001 scales).

[5] = Harvested organ weights at week 4; details: rats, versus control; for liver weight: week 4 harvested organs
Method: Animals treated from Example 1 were sacrificed by CO2 between 4-8 hours after gavage-treatment at the end of 4 weeks (28 days at the dose of 5-10 g/kg), which were determined to be peak ketone elevation. Brain, Lungs, Liver, Kidneys, Spleen and Heart were harvest and weighed using AWS-1000 1 kg portable digital scale (AWS, Charleston, S.C.). Organs were then either flash frozen in liquid nitrogen or preserved in paraformaldehyde for future analysis.

hepatocyte cell nuclei = assay: Liver histology (H&E stain) after 28 days of ketone supplementation; details: for fat deposits in liver sections / hepatocyte nucleus number, maximum / hepatocyte nucleus number, minimum / number of RBCs and capillaries in liver sections compared to control / hepatocyte nucleus number, average: rats, 28 days gavage at maximum tolerable dose (5-10 g/kg); for number of RBCs and capillaries in liver sections compared to control: data not shown; for hepatocyte nucleus number, average: minimum 5 images/animal, 5 animals/group; for hepatocyte nucleus number, significance (p, unpaired t-test versus control): significant if p < 0.05
Method: Livers from rats administered maximum tolerable dose of ketone supplementation were assessed via histology. The livers from rats treated 4-weeks with ketone supplementation appeared normal in color, size and texture in all groups upon harvesting. The livers were sectioned for histology and stained with Hematoxylin and Eosin (H&E stain), and analyzed by a trained pathologist to assess histopathological changes, including changes in liver cytoarchitecture, presence of steatosis, steatofibrosis, cell nuclei density, capillary density, presence of red blood cells (RBCs) and signs of inflammatory processes (e.g. macrophages).
The representative images are liver sections of Sprague-Dawley that were gavaged daily with water; 1,3-butanediol (BD); Ketone Ester (KE);) for 28 days at the maximum tolerable dose (5-10 g/kg). […] It should be noted that 1,3-butanediol has alcohol-like properties and requires hepatocytes to enzymatically metabolize the di-alcohol through cytosolic alcohol dehydrogenase and the induction of cytochrome p450 enzymes for conversion to βHB. The processes are associated with an increase in liver metabolism and blood flow, possibly resulting in greater number of RBCs and capillaries. There was also a modest, but statistically significant increase in hepatocyte cell nuclei, seen in Table 2, although no indications of liver damage, inflammation, fibrosis or presence of Mallory-Denk bodies were observed.

[6] = Global metabolic profiling of serum and hippocampus (GC/MS and LC/MS/MS) after 28-day treatment; details: rats
Method: Rats were treated as described in Example 1, and brain and serum samples were extracted and prepared for analysis using a standard solvent extraction method (Metabolon Inc., Durham, N.C.) at 28 days after initiation of treatment. The extracted samples were split into equal parts for analysis on the GC/MS and LC/MS/MS platforms. Instrument variability was determined by calculating the median relative standard deviation (RSD) for the internal standards that were added to each sample prior to injection into the mass spectrometers.
A total of 388 and 290 compounds were identified in serum and hippocampus samples, respectively. […] The less robust changes in the hippocampal tissue may have been due to the time frame needed to dissect the hippocampal tissue from the brain prior to flash freezing (2-4 minutes). Random Forest (RF) is a supervised classification technique reporting on the consensus of a large number of decision trees. In this study, the serum and hippocampus profiles of animals subjected to different dietary treatments were classified in order to: 1) assess the capacity to distinguish between dietary treatment on the basis of global metabolic profiles and 2) identify biochemicals important to the classification. A classification accuracy of 33% is expected by random chance when comparing three groups. For this study, classification of serum and hippocampus samples was 100% and 83% accurate, respectively, in correctly categorizing samples into their proper groups. […] In serum, the biochemical key to classifying the groups included biomarkers related to ketones, energy metabolites, medium-chain fatty acids, and ketones were key factors for hippocampal group classification.

[7] = 5 g/kg gavage, FIG. 3 (text: week 6; legend: week 4)

C[C@H](O)CCO [BD, R,S-1,3-butanediol]
duration of elevated blood ketones (starting at 30 min) [1]: 8 h | ketone bodies, peak at 4 hours ([1]; 5 g/kg gavage, FIG. 1(A), week 0): 1.0 mM/L | ketone bodies, initial peak at 30 minutes [1, 7]: around 0.8 mM/L | ketone bodies, second peak at 8 hours [1, 7]: around 0.8 mM/L | time of ketone body peak after treatment ([1]; 5 g/kg intragastric gavage daily, overall trend): 30 min | blood glucose levels, overall over the 4 weeks [2]: did not appear to drastically affect glucose levels | blood glucose levels, week 1 ([2]; 5 g/kg gavage): non-significant reduction | Triglyceride levels at week 4 [3]: mildly elevated | body weight increase versus control [4]: modestly decreased body weight increases | non-liver organ weight ([5]; week 4 harvested organs (brain, lungs, kidneys, spleen, heart)): no significant change in non-liver organ weight | liver weight [5]: not a significant change in liver weight | fat deposits in liver sections (hepatocyte cell nuclei): the most prevalence of fat deposition | hepatocyte nucleus number, maximum (hepatocyte cell nuclei): 120 | hepatocyte nucleus number, minimum (hepatocyte cell nuclei): 70 | number of RBCs and capillaries in liver sections compared to control (hepatocyte cell nuclei): trend for greater number of RBCs and capillaries | fat deposits in liver sections (hepatocyte cell nuclei; listed as BE): evident | hepatocyte nucleus number, average (hepatocyte cell nuclei): 93.56 | hepatocyte nucleus number, significance (p, unpaired t-test versus control) (hepatocyte cell nuclei): 0.585

CC(=O)CC(=O)OCCC(C)OC(=O)CC(C)=O (centres unmarked) [KE, R,S-1,3-butanediol acetoacetate diester]
duration of elevated blood ketones (starting at 30 min) [1]: 8 h | blood glucose levels, overall over the 4 weeks [2]: reductions in glucose levels began at 30 minutes after treatment through 4 hours | blood glucose levels, week 0 ([2]; 5 g/kg gavage, FIG. 4(A)): reduction in glucose levels by 1 hour after treatment | blood glucose levels, week 1 ([2]; 5 g/kg gavage): continued the trend | blood glucose levels, week 2 ([2]; 5 g/kg gavage, FIG. 5(A)): enhanced reduction in glucose | blood glucose levels, week 3 ([2]; 5 g/kg gavage, FIG. 5(B)): moderate reductions at 4 hours after treatment | blood glucose levels, week 4 ([2]; 5 g/kg gavage, FIG. 6): reduced glucose levels through 4 hours after treatment | Triglyceride levels at week 4 [3]: little change | body weight increase versus control [4]: further reduced weight gains compared to BD treatment | liver weight [5]: statistically significant reduction in liver weight | fat deposits in liver sections (hepatocyte cell nuclei): evident | hepatocyte nucleus number, maximum (hepatocyte cell nuclei): 141 | hepatocyte nucleus number, minimum (hepatocyte cell nuclei): 83 | number of RBCs and capillaries in liver sections compared to control (hepatocyte cell nuclei): trend for greater number of RBCs and capillaries | hepatocyte nucleus number, average (hepatocyte cell nuclei): 107.80^a | hepatocyte nucleus number, significance (p, unpaired t-test versus control) (hepatocyte cell nuclei): 0.002 | alpha-ketoglutarate, metabolite ratio relative to a standard diet (SD) alone ([6]; 5 g/kg, 28 days, blood serum): 1.98^a | citrate, metabolite ratio relative to a standard diet (SD) alone ([6]; 5 g/kg, 28 days, blood serum): 1.99^a | fumarate, metabolite ratio relative to a standard diet (SD) alone ([6]; 5 g/kg, 28 days, blood serum): 1.92^a | malate, metabolite ratio relative to a standard diet (SD) alone ([6]; 5 g/kg, 28 days, blood serum): 2.03^a | succinate, metabolite ratio relative to a standard diet (SD) alone ([6]; 5 g/kg, 28 days, blood serum): 1.25 | brain ketone levels, elevation with respect to controls ([6]; 28-day treatment, hippocampus, FIG. 16): > 2 fold | serum ketone levels, elevation with respect to controls ([6]; 28-day treatment, serum, FIG. 15): > 15 fold
